In patent publication US7723523B2, “Tetrahydropyridothiophenes” (4SC AG, priority 2004, dated 2010):

How the values were obtained:
[1] = system: RKO (RKOp27) human colon adenocarcinoma cells; experiment: Alamar Blue cell viability assay, anti-proliferative/cytotoxic activity on proliferating RKOp27 cells; format: cell-based; conditions: absence of Ponasterone A, 72 hours incubation, read-out: IC50 RKO p27 proliferating
Method in brief: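 IC50 values come from concentration-effect curves of Alamar Blue fluorescence (544/590 nm), relative to untreated controls set at 100%. Cells were RKOp27, seeded at 4000/well in DMEM with 10% FCS and exposed from 24 h post-seeding for 72 h (37 °C, 5% CO2) to semi-log dilutions, each run in quadruplicate.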

[2] = system: RKO colon adenocarcinoma cells (RKOp27) arrested by expression of ectopic p27Kip1; experiment: Alamar Blue cell viability assay on RKOp27 cells arrested by Ponasterone A-induced p27Kip1 (cell cycle specific mode of action); format: cell-based; conditions: Homo sapiens, RKOp27, 72 h, cells arrested by p27Kip1 induced with 10 μM Ponasterone A, 72 hours incubation, read-out: IC50 RKO p27 arrested
Method in brief: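 Viability measured by Alamar Blue fluorescence (ex 544, em 590 nm) after 72 h, 37 °C compound exposure in quadruplicate, normalized to untreated cells as 100%. Cells were p27Kip1-arrested RKOp27, induced with 10 μM Ponasterone A at seeding; compound added 24 h later.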

IC50 [2] [µM] | Compound | IC50 [1] [µM]
≥ 100 | CC1(C)OCC(COC(=O)N2CCc3c(sc(NC(=O)/C=C/c4cccnc4)c3C#N)C2)O1 (stereo not shown) [Example 164, 3-Cyano-2-((E)-3-pyridin-3-yl-allanoylamino)-4,7-dihydro-5H-thieno[2,3-c]pyridine-6-carboxylic acid 2,2-dimethyl-[1,3]dioxolan-4-ylmethyl ester] | ≤ 2
≥ 100 | N#Cc1c(NC(=O)/C=C/c2cccnc2)sc2c1CCN(C(=O)OCCOCc1ccccc1)C2 [Example 166, 3-Cyano-2-((E)-3-pyridin-3-yl-allanoylamino)-4,7-dihydro-5H-thieno[2,3-c]pyridine-6-carboxylic acid 2-benzyloxy-ethyl ester] | ≤ 2
≥ 100 | COCCOC(=O)N1CCc2c(sc(NC(=O)/C=C/c3cccnc3)c2C#N)C1 [Example 167, 3-Cyano-2-((E)-3-pyridin-3-yl-allanoylamino)-4,7-dihydro-5H-thieno[2,3-c]pyridine-6-carboxylic acid 2-methoxy-ethyl ester] | ≤ 2
≥ 50 | N#Cc1c(NC(=O)/C=C/c2cccnc2)sc2c1CCN(C(=O)OC1CCCCC1)C2 [Example 168, 3-Cyano-2-((E)-3-pyridin-3-yl-allanoylamino)-4,7-dihydro-5H-thieno[2,3-c]pyridine-6-carboxylic acid cyclohexyl ester] | ≤ 0.5
≥ 100 | N#Cc1c(NC(=O)/C=C/c2ccccc2)sc2c1CCN(C(=O)CCc1c[nH]c3ccccc13)C2 [Example 171, (E)-N-[3-Cyano-6-(3-1H-indol-3-yl-propanoyl)-4,5,6,7-tetrahydro-thieno[2,3-c]pyridin-2-yl]-3-phenyl-acrylamide] | ≤ 2
≥ 100 | N#Cc1c(NC(=O)/C=C/c2ccccc2)sc2c1CCN(C(=O)CCCc1c[nH]c3ccccc13)C2 [Example 172, (E)-N-[3-Cyano-6-(4-1H-indol-3-yl-butanoyl)-4,5,6,7-tetrahydro-thieno[2,3-c]pyridin-2-yl]-3-phenyl-acrylamide] | ≤ 2
≥ 100 | N#Cc1c(NC(=O)/C=C/c2ccccc2)sc2c1CCN(C(=O)Cc1ccccn1)C2 [Example 174, (E)-N-[3-Cyano-6-(2-pyridin-2-yl-ethanoyl)-4,5,6,7-tetrahydro-thieno[2,3-c]pyridin-2-yl]-3-phenyl-acrylamide] | ≤ 2
≥ 100 | COCCOCC(=O)N1CCc2c(sc(NC(=O)/C=C/c3ccccc3)c2C#N)C1 [Example 175, (E)-N-{3-Cyano-6-[2-(2-methoxy-ethoxy)-ethanoyl]-4,5,6,7-tetrahydro-thieno[2,3-c]pyridin-2-yl}-3-phenyl-acrylamide] | ≤ 2
≥ 100 | CCOC(=O)CC(=O)N1CCc2c(sc(NC(=O)/C=C/c3ccccc3)c2C#N)C1 [Example 176, 3-[3-Cyano-2-((E)-3-phenyl-allanoylamino)-4,7-dihydro-5H-thieno[2,3-c]pyridin-6-yl]-3-oxo-propionic acid ethyl ester] | ≤ 2
≥ 100 | COCCC(=O)N1CCc2c(sc(NC(=O)/C=C/c3ccccc3)c2C#N)C1 [Example 177, (E)-N-[3-Cyano-6-(3-methoxy-propanoyl)-4,5,6,7-tetrahydro-thieno[2,3-c]pyridin-2-yl]-3-phenyl-acrylamide] | ≤ 2
≥ 100 | CN(C)C(=O)CCC(=O)N1CCc2c(sc(NC(=O)/C=C/c3ccccc3)c2C#N)C1 [Example 178, 4-[3-Cyano-2-((E)-3-phenyl-allanoylamino)-4,7-dihydro-5H-thieno[2,3-c]pyridin-6-yl]-N,N-dimethyl-4-oxo-butyramide] | ≤ 2
≥ 100 | COCC(=O)N1CCc2c(sc(NC(=O)/C=C/c3ccccc3)c2C#N)C1 [Example 181, (E)-N-[3-Cyano-6-(2-methoxy-ethanoyl)-4,5,6,7-tetrahydro-thieno[2,3-c]pyridin-2-yl]-3-phenyl-acrylamide] | ≤ 2
≥ 50 | N#Cc1c(NC(=O)/C=C/c2ccccc2)sc2c1CCN(C(=O)Cc1c[nH]c3ccccc13)C2 [Example 182, (E)-N-[3-Cyano-6-(2-1H-indol-3-yl-ethanoyl)-4,5,6,7-tetrahydro-thieno[2,3-c]pyridin-2-yl]-3-phenyl-acrylamide] | ≤ 0.5
≥ 100 | N#Cc1c(NC(=O)/C=C/c2ccccc2)sc2c1CCN(C(=O)Cc1cccnc1)C2 [Example 183, (E)-N-[3-Cyano-6-(2-pyridin-3-yl-ethanoyl)-4,5,6,7-tetrahydro-thieno[2,3-c]pyridin-2-yl]-3-phenyl-acrylamide] | ≤ 2
≥ 100 | N#Cc1c(NC(=O)/C=C/c2ccccc2)sc2c1CCN(C(=O)CCc1cccnc1)C2 [Example 185, (E)-N-[3-Cyano-6-(3-pyridin-3-yl-propanoyl)-4,5,6,7-tetrahydro-thieno[2,3-c]pyridin-2-yl]-3-phenyl-acrylamide] | ≤ 2
≥ 100 | COC(=O)CCCC(=O)N1CCc2c(sc(NC(=O)/C=C/c3ccccc3)c2C#N)C1 [Example 186, 5-[3-Cyano-2-((E)-3-phenyl-allanoylamino)-4,7-dihydro-5H-thieno[2,3-c]pyridin-6-yl]-5-oxo-pentanoic acid methyl ester] | ≤ 2
≥ 100 | N#Cc1c(NC(=O)/C=C/c2ccccc2)sc2c1CCN(C(=O)CO)C2 [Example 187, (E)-N-[3-Cyano-6-(2-hydroxy-ethanoyl)-4,5,6,7-tetrahydro-thieno[2,3-c]pyridin-2-yl]-3-phenyl-acrylamide] | ≤ 2
≥ 100 | N#Cc1c(NC(=O)/C=C/c2ccccc2)sc2c1CCN(C(=O)Cn1ccnc1)C2 [Example 188, (E)-N-[3-Cyano-6-(2-imidazol-1-yl-ethanoyl)-4,5,6,7-tetrahydro-thieno[2,3-c]pyridin-2-yl]-3-phenyl-acrylamide] | ≤ 2
≥ 100 | CC(=O)OCC(=O)N1CCc2c(sc(NC(=O)/C=C/c3ccccc3)c2C#N)C1 [Example 189, Acetic acid 2-[3-cyano-2-((E)-3-phenyl-allanoylamino)-4,7-dihydro-5H-thieno[2,3-c]pyridin-6-yl]-2-oxo-ethyl ester] | ≤ 2
≥ 100 | N#Cc1c(NC(=O)/C=C/c2ccccc2)sc2c1CCN(C(=O)CCCn1ccnc1)C2 [Example 190, (E)-N-[3-Cyano-6-(4-imidazol-1-yl-butanoyl)-4,5,6,7-tetrahydro-thieno[2,3-c]pyridin-2-yl]-3-phenyl-acrylamide] | ≤ 2
≥ 100 | CC(=O)OCCCC(=O)N1CCc2c(sc(NC(=O)/C=C/c3ccccc3)c2C#N)C1 [Example 191, Acetic acid 4-[3-cyano-2-((E)-3-phenyl-allanoylamino)-4,7-dihydro-5H-thieno[2,3-c]pyridin-6-yl]-4-oxo-butyl ester] | ≤ 2
≥ 100 | N#Cc1c(NC(=O)/C=C/c2ccccc2)sc2c1CCN(C(=O)CCCO)C2 [Example 192, (E)-N-[3-Cyano-6-(4-hydroxy-butanoyl)-4,5,6,7-tetrahydro-thieno[2,3-c]pyridin-2-yl]-3-phenyl-acrylamide] | ≤ 2
≥ 100 | N#Cc1c(NC(=O)/C=C/c2cccnc2)sc2c1CCN(C(=O)CCc1cccnc1)C2 [Example 193, (E)-N-[3-Cyano-6-(3-pyridin-3-yl-propanoyl)-4,5,6,7-tetrahydro-thieno[2,3-c]pyridin-2-yl]-3-pyridin-3-yl-acrylamide] | ≤ 2
≥ 100 | COCC(=O)N1CCc2c(sc(NC(=O)/C=C/c3cccnc3)c2C#N)C1 [Example 194, (E)-N-[3-Cyano-6-(2-methoxy-ethanoyl)-4,5,6,7-tetrahydro-thieno[2,3-c]pyridin-2-yl]-3-pyridin-3-yl-acrylamide] | ≤ 2
≥ 100 | COCCC(=O)N1CCc2c(sc(NC(=O)/C=C/c3cccnc3)c2C#N)C1 [Example 195, (E)-N-[3-Cyano-6-(3-methoxy-propanoyl)-4,5,6,7-tetrahydro-thieno[2,3-c]pyridin-2-yl]-3-pyridin-3-yl-acrylamide] | ≤ 2
≥ 100 | N#Cc1c(NC(=O)/C=C/c2cccnc2)sc2c1CCN(C(=O)Cc1ccccn1)C2 [Example 196, (E)-N-[3-Cyano-6-(2-pyridin-2-yl-ethanoyl)-4,5,6,7-tetrahydro-thieno[2,3-c]pyridin-2-yl]-3-pyridin-3-yl-acrylamide] | ≤ 2
≥ 100 | N#Cc1c(NC(=O)/C=C/c2cccnc2)sc2c1CCN(C(=O)CCc1nccs1)C2 [Example 198, (E)-N-[3-Cyano-6-(3-thiazol-2-yl-propanoyl)-4,5,6,7-tetrahydro-thieno[2,3-c]pyridin-2-yl]-3-pyridin-3-yl-acrylamide] | ≤ 2
≥ 100 | COCCOCC(=O)N1CCc2c(sc(NC(=O)/C=C/c3cccnc3)c2C#N)C1 [Example 200, (E)-N-{3-Cyano-6-[2-(2-methoxy-ethoxy)-ethanoyl]-4,5,6,7-tetrahydro-thieno[2,3-c]pyridin-2-yl}-3-pyridin-3-yl-acrylamide] | ≤ 2
≥ 100 | N#Cc1c(NC(=O)/C=C/c2cccnc2)sc2c1CCN(C(=O)Cc1cccnc1)C2 [Example 205, (E)-N-[3-Cyano-6-(2-pyridin-3-yl-ethanoyl)-4,5,6,7-tetrahydro-thieno[2,3-c]pyridin-2-yl]-3-pyridin-3-yl-acrylamide] | ≤ 2
